Test results reported in patent US20100144820A1, “THERAPEUTIC HPPH DOSAGE FOR PDT” (Health Research, Inc., priority 2007, published 2010).
Values joined by “and” are separate entries in the source; they are usually repeats but may differ in a detail not shown here. Equal values may be shown once. “Also recorded” adds a separate entry of the source. Read-outs that look alike come from different tables or passages of the source.

What was measured:
skin = settings: cited from earlier work
tumor [1] = settings: mice, 0.05 to 0.3 mg/kg, 135 Joules/cm^2; cited from earlier work
normal skin tissue = assay: Adverse effects for normal skin tissue exposed to 133 Joules/cm^2; type: in vivo, human; set-up: key: 1: faint erythema; 2: minimal erythema with sharp borders; 3: pronounced erythema without edema; 6: more than 10% of toxic dose causing peripheral neuropathy in animals; settings: normal skin exposed to 133 Joules/cm^2
Protocol: Adverse effects for normal skin tissue when exposed to 133 Joules/cm^2 (approximately equivalent to 30 minutes of midday sun exposure in Northeastern United States): 1=faint erythema; 2=minimal erythema with sharp borders; 3=pronounced erythema without edema; 6- more than 10% of toxic dose causing peripheral neuropathy in animals.

basal cell carcinoma = assay: Photodynamic therapy for treatment of basal cell carcinoma using HPPH; type: in vivo, human
Description: Table 1 gives results of a study of Photodynamic Therapy for the treatment of basal cell carcinoma using 2-(1-hexyloxyethyl)-2-devinyl pyropheophorbide-a (HPPH).
All dose data converted from actual drug dose in milligrams per square meter of surface area of patient assuming a 70 kg patient having a 2 m^2 surface area.

[2] = test system: advanced obstructive endobronchial lung cancer; assay: Palliative treatment of advanced obstructive endobronchial lung cancer; type: in vivo, human; settings: 0.1 mg/kg; for 2 Month FU response (patients) / Long Term FU outcome (patients): 48 HRS post injection
Protocol: Palliative Treatment of Advanced Obstructive Endobronchial Lung Cancer For relief in breathing only. Long term responses not expected due to most patients having wide spread disease outside of the area treated by HPPH in the Bronchus. All HPPH doses were 0.1 mg/kg with exposure of 100 to 140 Joules per cm of diffusion fiber at 665±5 nm Light Energy 48 HRS Post Injection.

dogs = settings: cited from earlier work
[3] = test system: high grade dysplasia-carcinoma in Barrett's Esophagus; assay: HPPH PDT of high grade dysplasia-carcinoma in Barrett's Esophagus; type: in vivo, human
Description: Use of HPPH Photodynamic Therapy for treatment of high grade dysplasia-carcinoma in Barrett's Esophagus. All energy was at 175 Joules/cm at 665±5 nm Light Energy 48 HRS Post Injection. This was a single treatment. Based on studies with PHOTOFRIN®, it is expected that three treatments, instead of just one, would result in about an 77% cure rate.

bronchiogenic carcinoma = assay: Interluminal HPPH-PDT treatment of bronchiogenic carcinoma; type: in vivo, human; settings: 0.1 mg/kg, 75-85 J/cm, 48 HRS post injection
Description: Dosages are in Joules per cm length of light delivering optical fiber.

tumor [4] = settings: of body weight; cited from earlier work
[5] = 0.075 mg/kg, 175 Joules/cm, 48 HRS post injection, single treatment

In the case of Oc1cccc(-c2c3nc(c(-c4cccc(O)c4)c4ccc([nH]4)c(-c4cccc(O)c4)c4nc(c(-c5cccc(O)c5)c5ccc2[nH]5)CC4)C=C3)c1 [FOSCAN], the Reported phototoxicity (skin; 30 minute sun exposure a full week after injection) is given as “serious erythema”.

For CCCCCCOC(C)c1c(C)c2cc3nc(c4c5[nH]c(cc6nc(cc1[nH]2)C(C)=C6CC)c(C)c5C(=O)C4)C(CCC(=O)O)C3C (stereo not drawn) [HPPH, 2-(1-hexyloxy)-2-ethyl-derivative of pyropheophorbide-a], the “Long term tumor response” value (tumor [1]) is given as “no or extremely little long term tumor response”, the “Adverse Effects Noted” value (normal skin tissue; 0.05 mg/kg* (interpolated from 48 hr data)) is given as 1 and the “Adverse Effects Noted” value (normal skin tissue; 0.07 mg/kg* (interpolated from 48 hr data)) is given as 1. The “Adverse Effects Noted” value (normal skin tissue; 0.07 mg/kg) was 1, the “Adverse Effects Noted” value (normal skin tissue; 0.09 mg/kg) was 1 and the “Adverse Effects Noted” value (normal skin tissue; 0.12 mg/kg* control (interpolated from 48 hr data)) was 3 and 2. The “Adverse Effects Noted” value (normal skin tissue; 0.17 mg/kg control) was 3-6 and 2-6, the “Result of treatment of basal cell carcinoma” value (shortened to “Result”) (basal cell carcinoma; 0.05 mg/kg*, 150 J/cm^2 @24 hr*, interpolated from 48 hr data) was “Complete” and the “Result” value (basal cell carcinoma; 0.05 mg/kg*, 200 J/cm^2 @24 hr*, interpolated from 48 hr data) was “Complete”. For the same molecule, the “Result” value (basal cell carcinoma; 0.07 mg/kg*, 150 J/cm^2 @24 hr*, interpolated from 48 hr data) was “Complete”, the “Result” value (basal cell carcinoma; 0.07 mg/kg*, 200 J/cm^2 @24 hr*, interpolated from 48 hr data) was “Complete” and the “Result” value (basal cell carcinoma; 0.07 mg/kg, 50 J/cm^2 @24 hr) was “Fail and Partial and Complete”. The “Result” value (basal cell carcinoma; 0.07 mg/kg, 100 J/cm^2 @24 hr) was “Complete”, the “Result” value (basal cell carcinoma; 0.07 mg/kg, 150 J/cm^2 @48 hr) was “Complete” and the “Result” value (basal cell carcinoma; 0.07 mg/kg, 200 J/cm^2 @48 hr) was “Complete”. For the same molecule, the “Result” value (basal cell carcinoma; 0.09 mg/kg, 50 J/cm^2 @24 hr) was “Partial; also recorded: Complete”, the “Result” value (basal cell carcinoma; 0.09 mg/kg, 100 J/cm^2 @24 hr) was “Complete; also recorded: Partial” and the “Result” value (basal cell carcinoma; 0.09 mg/kg, 150 J/cm^2 @48 hr) was “Complete”. The “Result” value (basal cell carcinoma; 0.09 mg/kg, 200 J/cm^2 @48 hr) was “Complete”, the “2 Month FU response (patients)” value ([2]; 100 J/cm) was 1 CR/2 PR and the “Long Term FU outcome (patients)” value ([2]; 100 J/cm) was 1 disease. For the same molecule, the “Outcome upon long term follow up” value ([2]; 100 to 140 Joules per cm) was “one was disease free”, the “Systemic or phototoxic side effects” value ([2]; 100 to 140 Joules per cm) was “No observable systemic or phototoxic side effects” and the “2 Month FU response (patients)” value ([2]; 110 J/cm) was 3 PR. The “2 Month FU response (patients)” value ([2]; 130 J/cm) was 2 CR/1 PR, the “Long Term FU outcome (patients)” value ([2]; 130 J/cm) was 2 new and the “2 Month FU response (patients)” value ([2]; 140 J/cm) was 1 CR. The “Long Term FU outcome (patients)” value ([2]; 140 J/cm) was 1 new, the “Palliative response (improved ability to breathe)” value ([2]; all cases, 100 to 140 Joules per cm) was “at least partial palliative response” and the “Toxicity finding at lowest toxic dose” value (dogs; about 1.5 mg/kg in 0.1% Tween 80, test animals, toxicity said due to surfactant) was “neuropathy is common”. The Lowest toxic dose (dogs; in 0.1% Tween 80 (polysorbate 80) surfactant solution, dogs) was “about 1.5 mg/kg”, the “2 mo/FU response (patients)” value [3, 5] was 3 PR/2 CR and the “Long Term/FU response (patients)” value [3, 5] was 3 PR/2 CR. The “2 mo/FU response (patients)” value ([3]; 0.1 mg/kg, 175 Joules/cm, 48 HRS post injection, single treatment) was 4 PR/3 CR, the Expected cure rate ([3]; three treatments instead of one, expected based on studies with PHOTOFRIN) was about 77% and the “Systemic or phototoxic side effects” value (bronchiogenic carcinoma) was “No observable systemic or phototoxic side effects”.

In the case of porfimer sodium [PHOTOFRIN], the Reported phototoxicity (skin; 2 mg/kg dose, exposure to only 9 Joules/cm^2 of activating light) is given as “very serious erythema and necrosis” and the “Lowest reasonable effective dose / required dose” value (tumor [4]) is given as 2 mg/kg.
